ChEMBL document CHEMBL2331172, “Pyrrole and furan oligoglycosides from the starfish Asterina batheri and their inhibitory effect on the production of pro-inflammatory cytokines in lipopolysaccharide-stimulated bone marrow-derived dendritic cells” (Bioorg Med Chem Lett, 2013)

Key:
Conditions in all cases: bmdc
[1] = Antiinflammatory activity in wild-type C57BL/6 mouse BMDCs assessed as inhibition of IL-6 production incubated for 1 hr prior to LPS challenge measured after 16 hrs by ELISA; format: functional
[2] = Antiinflammatory activity in wild-type C57BL/6 mouse BMDCs assessed as inhibition of TNFalpha production incubated for 1 hr prior to LPS challenge measured after 16 hrs by ELISA; format: functional
[3] = Antiinflammatory activity in wild-type C57BL/6 mouse BMDCs assessed as inhibition of IL-12 p40 production incubated for 1 hr prior to LPS challenge measured after 16 hrs by ELISA; format: functional
[4] = Cytotoxicity against wild-type C57BL/6 mouse BMDCs assessed as cell viability by MTT assay

Row | Structure (SMILES) | IC50 [1] [µM] | IC50 [2] [µM] | IC50 [3] [µM] | Activity [4]
1 | CC(=O)c1occc1O[C@@H]1O[C@H](C)[C@@H](O[C@@H]2O[C@H](C)[C@H](O)[C@H](O[C@@H]3O[C@H](C)[C@H](O)[C@H](O)[C@H]3O)[C@H]2O)[C@H](O)[C@H]1O[C@@H]1O[C@H](C)[C@@H](O)[C@H](O)[C@H]1O [ASTEBATHERIOSIDE D] |  |  | 22.8 | Non-toxic
2 | CC(=O)c1[nH]ccc1O[C@@H]1O[C@H](C)[C@@H](O)[C@H](O)[C@H]1O[C@@H]1O[C@H](C)[C@@H](O)[C@H](O)[C@H]1O [ASTEBATHERIOSIDE C] |  |  | 31.6 | Non-toxic
3 | CC(=O)c1[nH]ccc1O[C@@H]1O[C@H](C)[C@@H](O[C@@H]2O[C@H](C)[C@H](O)[C@H](O[C@@H]3O[C@H](C)[C@H](O)[C@H](O)[C@H]3O)[C@H]2O)[C@H](O)[C@H]1O[C@@H]1O[C@H](C)[C@@H](O)[C@H](O)[C@H]1O | > 50 | > 50 | > 50 | Non-toxic
4 | C[S+]([O-])c1ccc(-c2nc(-c3ccc(F)cc3)c(-c3ccncc3)[nH]2)cc1 (stereo not given) [SB-203580] |  |  | 5 | 

Further lines, with some results ahead:

Row | IC50 [1] [µM] | IC50 [2] [µM] | IC50 [3] [µM] | Structure (SMILES) | Activity [4]
5 | > 50 | > 50 | > 50 | CC(=O)c1[nH]ccc1O[C@@H]1O[C@H](C)[C@@H](O[C@@H]2O[C@H](C)[C@H](O)[C@H](O[C@@H]3O[C@H](C)[C@H](O)[C@H](O[C@@H]4O[C@@H](CO)[C@H](O)[C@H]4O)[C@H]3O)[C@H]2O)[C@H](O)[C@H]1O[C@@H]1O[C@H](C)[C@@H](O)[C@H](O)[C@H]1O [ASTEBATHERIOSIDE A] | Non-toxic
6 |  |  | 36.4 | CC(=O)c1[nH]ccc1O[C@@H]1O[C@H](C)[C@@H](O[C@H]2OC[C@H](O)[C@H](O)[C@H]2O[C@@H]2O[C@H](C)[C@H](O)[C@H](O[C@@H]3O[C@@H](CO)[C@H](O)[C@H]3O)[C@H]2O)[C@H](O)[C@H]1O[C@@H]1O[C@H](C)[C@@H](O)[C@H](O)[C@H]1O [ASTEBATHERIOSIDE B] | Non-toxic
